Assay results reported in US5670526A, “1,3,4-oxadiazoles” (Otsuka Pharmaceutical Co., Ltd., priority 1995, dated 1997).

What was measured:
[1] = system: Concanavalin A (ConA)-induced liver injury; test: Concanavalin A (ConA)-induced liver injury in mice, serum SGOT; format: in vivo, C57BL/6 mice; details: Mus musculus, ip, ConA 15 mg/kg i.v., 17 hours, read-out: SGOT (% decrease); for inhibition in vivo at 50 mg/kg: 50 mg/kg i.p.
Method: The following protocol was used for the Concanavalin A (ConA)-induced liver injury in mice. C57BL/6 mice were used. A solution of ConA (Sigma)in PBS was prepared at a concentration of 1.5 mg/ml. The mice were administered, i.p., with […] of a 10% DMSO solution containing varying amounts (adjusted to give 25 mg/kg to 50 mg/kg of compound) of the representative compounds of interest. Fifteen minutes later, the mice were treated via the tail vein with 15 mg/kg of ConA in PBS along with […] of 10% DMSO solution.
The mice were sacrificed after 17 hours and the blood collected into small conical tubes. The tubes were centrifuged and the serum collected and assayed for serum glutamic oxaloacetic transaminase (SGOT) (Sigma GOT kit). The high level enzyme standard (Sigma) was used to make the standard curve, as 100(undiluted), 50, 25, 12.5 and 0 S-F units/mi. Samples were diluted 1:5, 1:25 and 1:125 by adding 25 μl of serum to 100 μl of H2 O and serially diluting 25 μl into 100 μl two more times. Then 100 μl of the Sigma substrate were added to each tube along with 20 μl of each diluted sample and enzyme standard. The tube was incubated in a 37° C. bath with gentle shaking for 1 hour. To that was added […] of colorizing reagent and the tube was left to stand for 30 minutes. Then 500 μl of 0.8N NaOH solution were added, the tubes were capped and inverted to mix thoroughly. A 150 μl aliquot of each sample and 150 μl of the standard were added to wells of a 96-well plate and color formation was monitored at 490 nm. The amounts of SGOT were calculated using a standard curve, converted to Sigma-Frankel units/ml.

[2] = system: VCAM; test: ELISA for cell surface molecules: inhibition of VCAM expression on IL-1β stimulated HUVEC's; format: cell-based; details: Homo sapiens; for inhibition at 3 µg/mL: @ 3 μg/ml; for inhibition at 1 µg/mL: @ 1 μg/mL; for inhibition at 10 µg/mL: @ 10 μg/mL
Method: (§1) The following were used in an ELISA for cell surface molecules: Costar 96-well TC plates, 2% gelatin, 1% BSA-Dulbecco's PBS w/CaMg^++, IL-1β, primary antibody e.g., 7A9 for ELAM (EP 505749) secondary biotinylated goat anti-mouse IgG/IgM, streptavidin-peroxidase, OPD substrate tablets and 30% hydrogen peroxide.
(§2) To begin, 96-well plates were coated with 2% gelatin (1 hour). The excess gelatin was aspirated from the wells. HUVEC's were seeded at 20,000 cells/well in a 200 μl volume.
(§3) Prior to assay, the test compounds were dissolved in DMSO at a stock concentration of 3 mg/ml. The stock solutions were set at room temperature and observed to see if dissolution was complete. When monolayers reached confluence (24-28 hours after seeding) the test compounds were added to the wells at final concentrations of 10 μg/ml, 3 μg/ml and 1 μg/ml. The plates were incubated for 1 hour at 37° C. Then, IL-1β at a final concentration of 1 μg/ml was added and the plates incubated for 4 hours at 37° C. The supernatant was removed from the plates by flicking into a sink. The wells were washed 3× with 1% BSA-Dulbecco's PBS.
(§4) Primary antibody (7A9 for ELAM or a suitable antibody for VCAM or ICAM) at a concentration of 2.5 μg/ml in a 50 μl volume was added to each well. The plates were incubated at 4° C. for 45 minutes to 1 hour. The wells were washed 3× with 1% BSA Dulbecco's PBS. Secondary antibody (biotinylated goat anti-mouse IgG-IgM, commercially available) at 50 μl/well at a final dilution of 1:1,000 was added to the well and the plates were incubated for 45 minutes to 1 hour at 4° C. The wells were washed 3× with 1% BSA-Dulbecco's PBS.
(§5) Streptavidin-peroxidase at 50 μl/well with a final dilution of 1:3,000 was added to each well and the plates were incubated at 4° C. for 30 minutes. Again the plates were washed 3× with 1% BSA-Dulbecco's PBS.
(§6) Substrate solution (OPD tablets, citric acid buffer and hydrogen peroxide solution) was prepared and added at 100 μl/well. The plates were incubated 15 minutes at room temperature on a plate shaker and the reaction was stopped with 12.5% sulfuric acid. Plates were read for absorbance values at 492 nm.
(§7) The degree of inhibition in expression of ELAM or VCAM by a compound of the instant invention is manifest as a decrease in specific primary antibody binding. In the following table the IC50 values are provided using a representative sampling of compounds of the instant invention.

[3] = system: ELAM; test: ELISA for cell surface molecules: inhibition of ELAM expression on IL-1β stimulated HUVEC's; format: cell-based; details: Homo sapiens; for inhibition at 1 µg/mL: @ 1 μg/mL; for inhibition at 3 µg/mL: @ 3 μg/ml; for inhibition at 10 µg/mL: @ 10 μg/mL
Method: as §1, §2, §3, §4, §5, §6, §7

[4] = system: Neutrophil migration; test: Immune complex (BSA/anti-BSA) induced neutrophil migration into mouse skin, myeloperoxidase (MPO) assay; format: in vivo, C57BL/6 mouse; details: for inhibition in vivo at 12.5 mg/site: Mus musculus, Neutrophil, 12.5 mg of drug/site, i.d., 4 hours
Method: Neutrophil migration and infiltration into tissue spaces and the effect thereon of the compounds of the instant compounds can be tested. For example, immune complexes can be developed at a subcutaneous or intradermal site to draw neutrophils and the effect of the instant compounds on neutrophil migration can be assessed. A protocol is as follows. Mice are injected IV with bovine serum albumin (BSA). Then the mice are injected intradermally with antibody to BSA. For experimental animals, the test substance is administered concurrently intradermally or subcutaneously at the site of antibody deposition. After about four hours, the animal is sacrificed, the skin at the injection site is removed and then treated appropriately, such as assaying for myeloperoxidase, to determine the extent of neutrophil migration to the injection site.
An i.v. injection of 100 μl of BSA at 10 mg/ml in saline was followed by a 25 μl injection of anti-BSA i.d. on the back side of a pre-shaven C57BL/6 mouse. At time 0, along with the BSA and anti-BSA, the test compound or vehicle was administered i.d. at the site of the antibody injection in a volume of 25 μl (for example, 0.5 mg/μl solution). Four hours post injection, the skin was removed and a myeloperoxidase (MPO) assay performed (Mulligan et al., J. Imm. 151(10): 5666-5674, 1993).
Briefly, the skin sample was placed in a 17×100 mm test tube containing 2 ml of ice cold buffer (PBS, pH 7.4). The sample was ground for 30 seconds and placed on ice. The sample was vortexed for 10 seconds and then sonicated for three minutes in iced water. The sample was frozen in dry ice for 30 minutes. The sample then was thawed rapidly in a water bath for 10 minutes. An aliquot of 1.5 ml was removed and placed in a microfuge tube. The sample was spun at high speed in a cold room for 15 minutes. The sample then was titrated across the wells in a microtiter plate with the first well containing a 1:3 dilution of sample, for example, 50 μl of sample and 150 μl of buffer. Substrate and hydrogen peroxide were added to each well. Following a suitable incubation period, sodium azide was added to the wells and the absorbance monitored in a spectrophotometer at 460 nm. […]

[5] = system: Concanavalin A (ConA)-induced liver injury; test: Concanavalin A (ConA)-induced liver injury in mice, serum SGOT; format: in vivo, C57BL/6 mice; details: Mus musculus, ip; 20 mg/kg i.p.; ConA 15 mg/kg i.v., 17 hours; read-out: SGOT (% decrease)

Compound	inhibition in vivo at 50 mg/kg [1]	inhibition at 3 µg/mL [2]	inhibition in vivo at 12.5 mg/site [4]	other results
COc1c(C)cnc(CSc2nnc(-c3ccccc3O)o2)c1C [Compound 60]	60%	–	–	–
COc1c(C)cnc(C[S+]([O-])c2nnc(-c3ccc(C(F)(F)F)cc3)o2)c1C (stereo not drawn) [Compound 117]	–	15%	–	–
c1ccc(CSc2nnc(-c3ccccn3)o2)cc1 [Compound 44]	–	–	–	inhibition in vivo at 25 mg/kg ([1]; 25 mg/kg i.p.): 86%
[O-][S+](Cc1ccccc1)c1nnc(-c2cccs2)o1 (stereo not drawn) [Compound 91]	–	–	40%	inhibition at 1 µg/mL [3]: 20%; inhibition at 1 µg/mL [2]: 20%
COc1c(C)cnc(C[S+]([O-])c2nnc(-c3cccn3C)o2)c1C (stereo not drawn) [Compound 112]	–	–	–	inhibition at 1 µg/mL [3]: 25%; inhibition at 1 µg/mL [2]: 65%
COc1c(C)cnc(CSc2nnc(-c3cccs3)o2)c1C [Compound 35]	45%	–	–	–
[O-][S+](Cc1ccccc1)c1nnc(-c2ccccn2)o1 (stereo not drawn) [Compound 97]	–	–	80%	inhibition in vivo at 20 mg/kg [5]: 45%; inhibition at 1 µg/mL [3]: 50%; inhibition at 1 µg/mL [2]: 55%
CCCCc1nnc([S+]([O-])Cc2ncc(C)c(OC)c2C)o1 (stereo not drawn) [Compound 81]	–	20%	–	–
Cc1nnc([S+]([O-])Cc2ccccn2)o1 (stereo not drawn) [Compound 71]	–	40%	40%	inhibition at 3 µg/mL [3]: 30%
c1ccc(CSc2nnc(-c3nc(-c4ccccc4)cs3)o2)cc1 [Compound 68]	–	–	–	decrease in MPO activity ([4]; test compound i.d. at site of antibody injection, 4 hours post injection): 55-60%
COc1c(C)cnc(CSc2nnc(-c3nc(-c4ccccc4)cs3)o2)c1C [Compound 67]	55%	–	–	–
c1ccc(CSc2nnc(-c3cccnc3)o2)cc1 [Compound 48]	51%	–	–	–
[O-][S+](Cc1ccccn1)c1nnc(-c2ccncc2)o1 (stereo not drawn) [Compound 92]	–	100%	60%	–
COc1ccnc2c1CCCCC2Sc1nnc(C)o1 (stereo not drawn) [Compound 19]	87%	–	–	–
[O-][S+](Cc1ccccc1)c1nnc(-c2nc(-c3ccccc3)cs2)o1 (stereo not drawn) [Compound 121]	–	50%	–	–
COc1c(C)cnc(C[S+]([O-])c2nnc(-c3cccc(C(F)(F)F)c3)o2)c1C (stereo not drawn) [Compound 116]	–	25%	–	–
COc1ccnc2c1CCCCC2[S+]([O-])c1nnc(C)o1 (stereo not drawn) [Compound 73]	–	–	–	inhibition at 10 µg/mL [3]: 20%; inhibition at 10 µg/mL [2]: 20%

Compound	inhibition in vivo at 50 mg/kg [1]	inhibition at 3 µg/mL [2]	inhibition in vivo at 12.5 mg/site [4]	other results
CCCc1nnc([S+]([O-])Cc2ncc(C)c(OC)c2C)o1 (stereo not drawn) [Compound 80]	–	70%	–	inhibition at 3 µg/mL [3]: 45%
Cc1nnc([S+]([O-])Cc2ccccc2)o1 (stereo not drawn) [Compound 72]	–	25%	–	inhibition at 3 µg/mL [3]: 15%
COc1c(C)cnc(C[S+]([O-])c2nnc(-c3ccccc3O)o2)c1C (stereo not drawn) [Compound 113]	80%	–	20%	inhibition at 1 µg/mL [3]: 30%; inhibition at 1 µg/mL [2]: 50%
CCc1nnc([S+]([O-])Cc2ncc(C)c(OC)c2C)o1 (stereo not drawn) [Compound 79]	–	50%	–	inhibition at 3 µg/mL [3]: 35%
[O-][S+](Cc1ccccc1)c1nnc(-c2ccccc2O)o1 (stereo not drawn) [Compound 114]	–	–	–	inhibition at 1 µg/mL [3]: 20%; inhibition at 1 µg/mL [2]: 25%
COc1c(C)cnc(C[S+]([O-])c2nnc(C)o2)c1C (stereo not drawn) [Compound 70, 2-(3,5-dimethyl-4-methoxy-2-pyridyl)methylsulfinyl-5-methyl-1,3,4-oxadiazole]	82%	65%	55%	inhibition at 3 µg/mL [3]: 55%
[O-][S+](Cc1ccccn1)c1nnc(C23CC4CC(CC(C4)C2)C3)o1 (stereo not drawn) [Compound 102]	–	30%	25%	–
COc1c(C)cnc(C[S+]([O-])c2nnc(-c3ccccc3)o2)c1C (stereo not drawn) [Compound 85]	–	100%	25%	–
[O-][S+](Cc1ccccn1)c1nnc(-c2cccnc2)o1 (stereo not drawn) [Compound 100]	–	80%	60%	–
[O-][S+](Cc1ccccn1)c1nnc(-c2ccccn2)o1 (stereo not drawn) [Compound 96]	–	–	70%	inhibition at 1 µg/mL [3]: 50%; inhibition at 1 µg/mL [2]: 50%
[O-][S+](Cc1ccccc1)c1nnc(-c2cc(-c3ccccc3)nc3ccccc23)o1 (stereo not drawn) [Compound 106]	–	10%	–	–
Cc1nnc([S+]([O-])Cc2nccn2Cc2ccccc2)o1 (stereo not drawn) [Compound 75]	–	100%	20%	inhibition at 3 µg/mL [3]: 55%
[O-][S+](Cc1ccccc1)c1nnc(-c2cccnc2)o1 (stereo not drawn) [Compound 101]	68%	–	50%	inhibition at 10 µg/mL [3]: 75%; inhibition at 10 µg/mL [2]: 40%
COc1c(C)cnc(C[S+]([O-])c2nnc(-c3cccs3)o2)c1C (stereo not drawn) [Compound 89]	95%	–	–	inhibition at 1 µg/mL [3]: 25%; inhibition at 1 µg/mL [2]: 60%
Cc1nnc([S+]([O-])Cc2ncn(Cc3ccccc3)c2C)o1 (stereo not drawn) [Compound 76]	–	–	20%	–
COc1c(C)cnc(CSc2nnc(C)o2)c1C [Compound 16, 2-(3,5-dimethyl-4-methoxy-2-pyridyl)methylthio-5-methyl-1,3,4-oxadiazole]	85%	–	–	–
COc1ccnc2c1CCCCC2Sc1nnc(-c2nc(-c3ccccc3)cs2)o1 (stereo not drawn) [Compound 69]	30%	–	–	–
